biological target: T1, human B1R (Homo sapiens, UniProt P46663); assay: Functional assay at bradykinin receptor 1 (B1R): Ca2+ fluorescence (Fluo-4) in FLIPR/Novostar, antagonist mode; format: cell-based; settings: test substance 10 µM; CHO K1 cells stably transfected with human B1R gene (hB1R-Zellen); agonist Lys-Des-Arg9-Bradykinin at EC80; % inhibition relative to maximal achievable inhibition; read-out: % Inhibierung (human B1R) bei 10 µM
T1 construct: expressed in transfected cells; host or cells: CHO K1 cells (Chinese Hamster Ovary), stably transfected
T1 sequence (P46663 1-353): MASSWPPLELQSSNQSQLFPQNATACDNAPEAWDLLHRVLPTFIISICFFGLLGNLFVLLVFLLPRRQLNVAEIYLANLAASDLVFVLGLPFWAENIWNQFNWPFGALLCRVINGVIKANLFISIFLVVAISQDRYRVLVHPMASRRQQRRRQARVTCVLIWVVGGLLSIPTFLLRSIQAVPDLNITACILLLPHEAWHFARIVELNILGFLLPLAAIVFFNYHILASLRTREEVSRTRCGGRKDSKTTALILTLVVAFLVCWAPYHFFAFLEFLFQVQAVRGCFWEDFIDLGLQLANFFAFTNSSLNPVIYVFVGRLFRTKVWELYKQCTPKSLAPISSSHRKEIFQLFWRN
Summary of the method: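 CHO K1 cells stably expressing human B1R were loaded with Fluo-4 and preincubated 6–20 min with test compound before Lys-Des-Arg9-bradykinin at its EC80. Peak fluorescence (ex 488/em 540 nm) gave % inhibition versus maximal inhibition; IC50 from several concentrations, n=2 or 3.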

Row | Structure (SMILES) | inhibition at 10 µM
1 | COc1cc(C)c(S(=O)(=O)Cc2noc(C(=O)N3CCN(Cc4ccnc(N5CCCC5)c4)CC3)n2)c(C)c1 [SC-60, [3-[[(4-Methoxy-2,6-dimethyl-phenyl)sulfonyl]-methyl]-[1,2,4]oxadiazol-5-yl]-[4-[(2-pyrrolidin-1-yl-pyridin-4-yl)-methyl]-piperazin-1-yl]-methanon] | 99%
2 | COc1cc(C)c(S(=O)(=O)Cc2noc(C(=O)N3CCN(Cc4ccc(N5CCCC5)nc4)CC3)n2)c(C)c1 [SC-61, [3-[[(4-Methoxy-2,6-dimethyl-phenyl)sulfonyl]-methyl]-[1,2,4]oxadiazol-5-yl]-[4-[(6-pyrrolidin-1-yl-pyridin-3-yl)-methyl]-piperazin-1-yl]-methanon] | 100%
3 | COc1cc(C)c(S(=O)(=O)Cc2noc(CC(=O)N3CCN(Cc4ccc(N5CCCC5)nc4)CC3)n2)c(C)c1 [SC-62, 2-[3-[[(4-Methoxy-2,6-dimethyl-phenyl)sulfonyl]-methyl]-[1,2,4]oxadiazol-5-yl]-1-[4-[(6-pyrrolidin-1-yl-pyridin-3-yl)-methyl]-piperazin-1-yl]-ethanon] | 100%
4 | COc1cc(C)c(S(=O)(=O)Cc2noc(CC(=O)N(C)C3CCN(c4ncnc5ccccc45)CC3)n2)c(C)c1 [SC-63, 2-[3-[[(4-Methoxy-2,6-dimethyl-phenyl)sulfonyl]-methyl]-[1,2,4]oxadiazol-5-yl]-N-methyl-N-(1-chinazolin-4-yl-piperidin-4-yl)-acetamid] | 100%
5 | COc1cc(C)c(S(=O)(=O)Cc2noc(CC(=O)N(C)C3CCC(N4CCC(OC)CC4)CC3)n2)c(C)c1 (centres unmarked) [SC-64, 2-[3-[[(4-Methoxy-2,6-dimethyl-phenyl)sulfonyl]-methyl]-[1,2,4]oxadiazol-5-yl]-N-[4-(4-methoxy-piperidin-1-yl)-cyclohexyl]-N-methyl-acetamid] | 100%
6 | COc1cc(C)c(S(=O)(=O)Cc2noc(CC(=O)N(C)C3CCN(Cc4ccc(N5CCCC5)nc4)CC3)n2)c(C)c1 [SC-65, 2-[3-[[(4-Methoxy-2,6-dimethyl-phenyl)sulfonyl]-methyl]-[1,2,4]oxadiazol-5-yl]-N-methyl-N-[1-[(6-pyrrolidin-1-yl-pyridin-3-yl)-methyl]-piperidin-4-yl]-acetamid] | 100%
7 | COc1cc(C)c(S(=O)(=O)Cc2noc(CC(=O)N(C)C3CCN(c4ccnc(N(C)C)n4)CC3)n2)c(C)c1 [SC-66, N-[1-(2-Dimethylamino-pyrimidin-4-yl)-piperidin-4-yl]-2-[3-[[(4-methoxy-2,6-dimethyl-phenyl)-sulfonyl]-methyl]-[1,2,4]oxadiazol-5-yl]-N-methyl-acetamid] | 100%
8 | COc1cc(C)c(S(=O)(=O)Cc2noc(CC(=O)N(C)C3CCN(c4ccnc(N(C)C)c4)CC3)n2)c(C)c1 [SC-67, N-[1-(2-Dimethylamino-pyridin-4-yl)-piperidin-4-yl]-2-[3-[[(4-methoxy-2,6-dimethyl-phenyl)-sulfonyl]-methyl]-[1,2,4]oxadiazol-5-yl]-N-methyl-acetamid] | 100%
9 | COc1cc(C)c(S(=O)(=O)Cc2noc(C(=O)N(C)C3CCN(c4ccnc(N(C)C)n4)CC3)n2)c(C)c1 [SC-68, N-[1-(2-Dimethylamino-pyrimidin-4-yl)-piperidin-4-yl]-3-[[(4-methoxy-2,6-dimethyl-phenyl)sulfonyl]-methyl]-N-methyl-[1,2,4]oxadiazol-5-carbonsäure amid] | 100%
10 | COc1cc(C)c(S(=O)(=O)Cc2noc(C(=O)N(C)C3CCN(c4ccnc(N(C)C)c4)CC3)n2)c(C)c1 [SC-69, N-[1-(2-Dimethylamino-pyridin-4-yl)-piperidin-4-yl]-3-[[(4-methoxy-2,6-dimethyl-phenyl)sulfonyl]-methyl]-N-methyl-[1,2,4]oxadiazol-5-carbonsäure amid] | 100%
11 | COc1cc(C)c(S(=O)(=O)Cc2noc(CC(=O)N(C)C3CCN(c4ccncc4F)CC3)n2)c(C)c1 [SC-70, N-[1-(3-Fluor-pyridin-4-yl)-piperidin-4-yl]-2-[3-[[(4-methoxy-2,6-dimethyl-phenyl)sulfonyl]-methyl]-[1,2,4]oxadiazol-5-yl]-N-methyl-acetamid] | 100%
12 | COc1cc(C)c(S(=O)(=O)Cc2noc(CC(=O)N(C)C3CCN(Cc4cc(C)no4)CC3)n2)c(C)c1 [SC-72, 2-[3-[[(4-Methoxy-2,6-dimethyl-phenyl)sulfonyl]-methyl]-[1,2,4]oxadiazol-5-yl]-N-methyl-N-[1-[(3-methyl-isoxazol-5-yl)-methyl]-piperidin-4-yl]-acetamid] | 100%
13 | COc1cc(C)c(S(=O)(=O)Cc2noc(C(=O)N(C)C3CCN(c4ccncc4F)CC3)n2)c(C)c1 [SC-82, N-[1-(3-Fluor-pyridin-4-yl)-piperidin-4-yl]-3-[[(4-methoxy-2,6-dimethyl-phenyl)sulfonyl]-methyl]-N-methyl-[1,2,4]oxadiazol-5-carbonsäure amid] | 98%
14 | COc1cc(C)c(S(=O)(=O)Cc2c(C)nn(CC(=O)N(C)[C@H]3CCC[C@@H](N4CCN(C)CC4)C3)c2C)c(C)c1 [SC-83, 2-[4-[[(4-Methoxy-2,6-dimethyl-phenyl)sulfonyl]-methyl]-3,5-dimethyl-1H-pyrazol-1-yl]-N-methyl-N-[(1S,3R)-3-(4-methyl-piperazin-1-yl)-cyclohexyl]-acetamid] | 100%
15 | COc1cc(C)c(S(=O)(=O)Cc2cn(CC(=O)N(C)[C@H]3CCC[C@@H](N4CCN(C)CC4)C3)nn2)c(C)c1 [SC-84, 2-[4-[[(4-Methoxy-2,6-dimethyl-phenyl)sulfonyl]-methyl]-1H-[1,2,3]triazol-1-yl]-N-methyl-N-[(1S,3R)-3-(4-methyl-piperazin-1-yl)-cyclohexyl]-acetamid] | 100%
16 | COc1cc(C)c(S(=O)(=O)Cc2noc(CC(=O)N(C)C3CCN(c4ccncc4)C(=O)C3)n2)c(C)c1 (centres unmarked) [SC-85, 2-[3-[[(4-Methoxy-2,6-dimethyl-phenyl)sulfonyl]-methyl]-[1,2,4]oxadiazol-5-yl]-N-methyl-N-(2-oxo-1-pyridin-4-yl-piperidin-4-yl)-acetamid] | 100%
17 | COc1cc(C)c(S(=O)(=O)Cc2nnc(C(=O)N3CCC(CN4CCN(C)CC4)C3)o2)c(C)c1 (centres unmarked) [SC-86, [5-[[(4-Methoxy-2,6-dimethyl-phenyl)sulfonyl]-methyl]-[1,3,4]oxadiazol-2-yl]-[3-[(4-methyl-piperazin-1-yl)-methyl]-pyrrolidin-1-yl]-methanon] | 100%
18 | COc1cc(C)c(S(=O)(=O)Cc2nnc(C(=O)NC3CCNCC3(C)C)o2)c(C)c1 (centres unmarked) [SC-87, N-(3,3-Dimethyl-piperidin-4-yl)-5-[[(4-methoxy-2,6-dimethyl-phenyl)sulfonyl]-methyl]-[1,3,4]oxadiazol-2-carbonsäure amid] | 98%
19 | COc1cc(C)c(S(=O)(=O)Cc2nc(C(=O)N3CCC(CN4CCN(C)CC4)C3)no2)c(C)c1 (centres unmarked) [SC-88, [5-[[(4-Methoxy-2,6-dimethyl-phenyl)sulfonyl]-methyl]-[1,2,4]oxadiazol-3-yl]-[3-[(4-methyl-piperazin-1-yl)-methyl]-pyrrolidin-1-yl]-methanon] | 100%
20 | COc1cc(C)c(S(=O)(=O)Cc2nc(C(=O)N(C)[C@H]3CCC[C@@H](N4CCN(C)CC4)C3)no2)c(C)c1 [SC-89, 5-[[(4-Methoxy-2,6-dimethyl-phenyl)sulfonyl]-methyl]-N-methyl-N-[(1S,3R)-3-(4-methyl-piperazin-1-yl)-cyclohexyl]-[1,2,4]oxadiazol-3-carbonsäure amid] | 100%
